These compounds were tested on BJAB (malignant human B-cell-line) (assay: BJAB cell proliferation). Settings: BJAB (malignant human B-cell-line) cell proliferation, EC50; read-out: BJAB.
Type: cell-based
Source text: In certain embodiments, the therapeutic compound is one of the compounds of the compound table below. […] In certain embodiments, the therapeutic compound is a compound having an activity as “A,” “B” or “C” in the table below. In certain embodiments, the therapeutic compound is a compound having an activity as “A” or “B” in the table below. In certain embodiments, the therapeutic compound is a compound having an activity as “A” in the table below.
In certain embodiments, the therapeutic compound is one of the compounds of the compound table below, optionally provided as a pharmaceutically-acceptable salt or N-oxide, and/or a solvate or hydrate. […] In certain embodiments, the therapeutic compound is a compound having an activity as “A,” “B” or “C” in the table below. In certain embodiments, the therapeutic compound is a compound having an activity as “A” or “B” in the table below. In certain embodiments, the therapeutic compound is a compound having an activity as “A” in the table below.

| Compound | EC50 |
| --- | --- |
| Cc1nn(-c2nc(C3=CCC(C(F)(F)F)CC3)c(SC(C)C)s2)c(C(=O)O)c1-c1cccc(F)c1 (stereo not drawn) [Compound B5, 4-(3-fluorophenyl)-1-(5-(isopropylthio)-4-(4-(trifluoromethyl)cyclohex-1-en-1-yl)thiazol-2-yl)-3-methyl-1H-pyrazole-5-carboxylic acid] | < 1 µM |
| COCCNC(=O)c1ccc(-c2sc(-n3nc(C)c(-c4cccc(F)c4)c3C(=O)O)nc2-c2ccc(C(F)(F)F)cc2)cc1 [Compound B49, 4-(3-fluorophenyl)-1-(5-(4-((2-methoxyethyl)carbamoyl)phenyl)-4-(4-(trifluoromethyl)phenyl)thiazol-2-yl)-3-methyl-1H-pyrazole-5-carboxylic acid] | > 20 µM |
| COCCN(C)C(=O)c1ccc(-c2sc(-n3nc(C)c(-c4cccc(F)c4)c3C(=O)O)nc2-c2ccc(C(F)(F)F)cc2)cc1 [Compound B50, 4-(3-fluorophenyl)-1-(5-(4-((2-methoxyethyl)(methyl)carbamoyl)phenyl)-4-(4-(trifluoromethyl)phenyl)thiazol-2-yl)-3-methyl-1H-pyrazole-5-carboxylic acid] | > 20 µM |
| COCC(=O)Nc1ccc(-c2sc(-n3nc(C)c(-c4cccc(F)c4)c3C(=O)O)nc2-c2ccc(C(F)(F)F)cc2)cc1 [Compound B51, 4-(3-fluorophenyl)-1-(5-(4-(2-methoxyacetamido)phenyl)-4-(4-(trifluoromethyl)phenyl)thiazol-2-yl)-3-methyl-1H-pyrazole-5-carboxylic acid] | 10 to 25 µM |
| COCCOCC(=O)Nc1ccc(-c2sc(-n3nc(C)c(-c4cccc(F)c4)c3C(=O)O)nc2-c2ccc(C(F)(F)F)cc2)cc1 [Compound B52, 4-(3-fluorophenyl)-1-(5-(4-(2-(2-methoxyethoxy)acetamido)phenyl)-4-(4-(trifluoromethyl)phenyl)thiazol-2-yl)-3-methyl-1H-pyrazole-5-carboxylic acid] | 10 to 25 µM |
| COCCNC(=O)CCc1sc(-n2nc(C)c(-c3cccc(F)c3)c2C(=O)O)nc1-c1ccc(C(F)(F)F)cc1 [Compound B53, 4-(3-fluorophenyl)-1-(5-(3-((2-methoxyethyl)amino)-3-oxopropyl)-4-(4-(trifluoromethyl)phenyl)thiazol-2-yl)-3-methyl-1H-pyrazole-5-carboxylic acid] | > 20 µM |
| COCCN(C)C(=O)CCc1sc(-n2nc(C)c(-c3cccc(F)c3)c2C(=O)O)nc1-c1ccc(C(F)(F)F)cc1 [Compound B54, 4-(3-fluorophenyl)-1-(5-(3-((2-methoxyethyl)(methyl)amino)-3-oxopropyl)-4-(4-(trifluoromethyl)phenyl)thiazol-2-yl)-3-methyl-1H-pyrazole-5-carboxylic acid] | > 20 µM |
| COCC(=O)N(C)c1ccc(-c2sc(-n3nc(C)c(-c4cccc(F)c4)c3C(=O)O)nc2-c2ccc(C(F)(F)F)cc2)cc1 [Compound B55, 4-(3-fluorophenyl)-1-(5-(4-(2-methoxy-N-methylacetamido)phenyl)-4-(4-(trifluoromethyl)phenyl)thiazol-2-yl)-3-methyl-1H-pyrazole-5-carboxylic acid] | > 20 µM |
| COCCOCC(=O)N(C)c1ccc(-c2sc(-n3nc(C)c(-c4cccc(F)c4)c3C(=O)O)nc2-c2ccc(C(F)(F)F)cc2)cc1 [Compound B56, 4-(3-fluorophenyl)-1-(5-(4-(2-(2-methoxyethoxy)-N-methylacetamido)phenyl)-4-(4-(trifluoromethyl)phenyl)thiazol-2-yl)-3-methyl-1H-pyrazole-5-carboxylic acid] | > 20 µM |
| COCc1sc(-n2nc(C)c(-c3cccc(F)c3)c2C(=O)O)nc1-c1ccc(C(F)(F)F)cc1 [Compound B57, 4-(3-fluorophenyl)-1-(5-(methoxymethyl)-4-(4-(trifluoromethyl)phenyl)thiazol-2-yl)-3-methyl-1H-pyrazole-5-carboxylic acid] | 5 to 10 µM |
| CCOCCOCCOc1ccc(-c2sc(-n3nc(C)c(-c4cccc(F)c4)c3C(=O)O)nc2-c2ccc(C(F)(F)F)cc2)cc1 [Compound B58, 1-(5-(4-(2-(2-ethoxyethoxy)ethoxy)phenyl)-4-(4-(trifluoromethyl)phenyl)thiazol-2-yl)-4-(3-fluorophenyl)-3-methyl-1H-pyrazole-5-carboxylic acid] | 1 to 5 µM |
| Cc1nn(-c2nc(-c3ccc(C(F)(F)F)cc3)c(-c3cccc(F)c3)s2)c(C(=O)O)c1-c1cccc(F)c1 [Compound B59, 4-(3-fluorophenyl)-1-(5-(3-fluorophenyl)-4-(4-(trifluoromethyl)phenyl)thiazol-2-yl)-3-methyl-1H-pyrazole-5-carboxylic acid] | < 1 µM |
| Cc1nn(-c2nc(-c3ccc(C(F)(F)F)cc3)c(CO)s2)c(C(=O)O)c1-c1cccc(F)c1 [Compound B60, 4-(3-fluorophenyl)-1-(5-(hydroxymethyl)-4-(4-(trifluoromethyl)phenyl)thiazol-2-yl)-3-methyl-1H-pyrazole-5-carboxylic acid] | > 20 µM |
| Cc1nn(-c2nc(N3CCC(C(F)(F)F)CC3)c(-c3ccc(C(F)(F)F)cc3)s2)c(C(=O)O)c1-c1cccc(F)c1 [Compound B61, 4-(3-fluorophenyl)-3-methyl-1-(5-(4-(trifluoromethyl)phenyl)-4-(4-(trifluoromethyl)piperidin-1-yl)thiazol-2-yl)-1H-pyrazole-5-carboxylic acid] | < 1 µM |
| Cc1nn(-c2nc(-c3cccc(F)c3)c(-c3ccc(C(F)(F)F)cc3)s2)c(C(=O)O)c1-c1cccc(F)c1 [Compound B62, 4-(3-fluorophenyl)-1-(4-(3-fluorophenyl)-5-(4-(trifluoromethyl)phenyl)thiazol-2-yl)-3-methyl-1H-pyrazole-5-carboxylic acid] | 5 to 10 µM |
| Cc1nn(-c2nc(-c3ccc(C(F)(F)F)cc3)c(C(C)O)s2)c(C(=O)O)c1-c1cccc(F)c1 (stereo not drawn) [Compound B63, 4-(3-fluorophenyl)-1-(5-(1-hydroxyethyl)-4-(4-(trifluoromethyl)phenyl)thiazol-2-yl)-3-methyl-1H-pyrazole-5-carboxylic acid] | > 20 µM |
| Cc1nn(-c2nc(-c3ccc(C(F)(F)F)cc3)c(CCO)s2)c(C(=O)O)c1-c1cccc(F)c1 [Compound B64, 4-(3-fluorophenyl)-1-(5-(2-hydroxyethyl)-4-(4-(trifluoromethyl)phenyl)thiazol-2-yl)-3-methyl-1H-pyrazole-5-carboxylic acid] | > 20 µM |
| COCCOc1ccc(-c2sc(-n3nc(C)c(-c4cccc(F)c4)c3C(=O)O)nc2-c2ccc(C(F)(F)F)cc2)cc1 [Compound B65, 4-(3-fluorophenyl)-1-(5-(4-(2-methoxyethoxy)phenyl)-4-(4-(trifluoromethyl)phenyl)thiazol-2-yl)-3-methyl-1H-pyrazole-5-carboxylic acid] | 1 to 5 µM |
| COC(C)c1sc(-n2nc(C)c(-c3cccc(F)c3)c2C(=O)O)nc1-c1ccc(C(F)(F)F)cc1 (stereo not drawn) [Compound B66, 4-(3-fluorophenyl)-1-(5-(1-methoxyethyl)-4-(4-(trifluoromethyl)phenyl)thiazol-2-yl)-3-methyl-1H-pyrazole-5-carboxylic acid] | 5 to 10 µM |
| Cc1nn(-c2nc(N3CCC(C(C)C)CC3)c(SC(C)C)s2)c(C(=O)O)c1-c1cccc(F)c1 [Compound B67, 4-(3-fluorophenyl)-1-(4-(4-isopropylpiperidin-1-yl)-5-(isopropylthio)thiazol-2-yl)-3-methyl-1H-pyrazole-5-carboxylic acid] | 1 to 5 µM |

Each compound was assayed on ATF4 (assay: ATF4 induction by immunofluorescence in HCT-116 cells transfected with tGFP or FAM210B-GFP). Settings: not given.
Type: cell-based, human
Set-up: compound mediated ATF4 induction versus FAM210B expression: dose or concentration left out as unconfirmed
Source text: FIG. 17 is a set of fluorescence micrographs of HCT-116 cells transfected with a vector expressing tGFP (left) or FAM210B-GFP (right).
FIG. 18 is a graph of ATF4 expression versus GFP expression for HCT-116 cells transfected with a vector expressing tGFP or FAM210B-GFP.
HCT-116 cells were transfected with a vector expressing tGFP or FAM210B-GFP. […] Following 4 hrs of drug treatment the cells were fixed, permeabilized, and ATF4 levels determined by immunofluorescence (IF), and FAM210B levels were determined by detection of GFP. Cells were binned based on median ATF4 protein expression and ranked relative to level of FAM210B-tGFP.

| Compound | effect of FAM210B expression on induction of ATF4 by the agent |
| --- | --- |
| arsenite [reference compound] | no effect |

Same assay, conditions: HCT-116 transfected with tGFP or FAM210B-GFP; 4 hrs; immunofluorescence

| Compound | compound mediated ATF4 induction versus FAM210B expression |
| --- | --- |
| Cc1nn(-c2nc(C3=CCC(C(F)(F)F)CC3)c(SC(C)C)s2)c(C(=O)O)c1-c1cccc(F)c1 (stereo not drawn) [Compound B5, 4-(3-fluorophenyl)-1-(5-(isopropylthio)-4-(4-(trifluoromethyl)cyclohex-1-en-1-yl)thiazol-2-yl)-3-methyl-1H-pyrazole-5-carboxylic acid] | induction of ATF4 is inhibited by FAM210B expression in HCT-116 cells |

Same assay, conditions: alternate pathways of ATF4 induction

| Compound | effect of FAM210B expression on induction of ATF4 by the agent |
| --- | --- |
| tunicamycin [reference compound] | no effect |

Same assay, conditions: follow-up studies

| Compound | effect of PERK inhibitors on compound mediated induction of ATF4 |
| --- | --- |
| Cc1nn(-c2nc(C3=CCC(C(F)(F)F)CC3)c(SC(C)C)s2)c(C(=O)O)c1-c1cccc(F)c1 (stereo not drawn) [Compound B5, 4-(3-fluorophenyl)-1-(5-(isopropylthio)-4-(4-(trifluoromethyl)cyclohex-1-en-1-yl)thiazol-2-yl)-3-methyl-1H-pyrazole-5-carboxylic acid] | no effect |
